Source: patent US8148056B2, “Methods of identifying modulators of GPR81 receptors” (Janssen Pharmaceutica NV, priority 2006, dated 2012)
“And” between values parts separate entries of the source, which are not always exact repeats. Identical values can stand only once. “Also recorded” adds a separate entry of the source. Counter-ions that a name gives are not always drawn. Like-named read-outs stand apart in the source and are kept apart here.

What was measured:
[1] = target: T1, GPR81 (Homo sapiens, UniProt Q9BXC0); test: GPR81 agonist ligand activity, GTPγS binding assay (species of receptor not given); assay type: biochemical; parameters: expressed in transfected cells; host or cells: GPR81-expressing cells / membranes (CHO); conditions: for GPR81 agonist activity: yes/no; for stimulation of 35S-GTPγS binding in GPR81-expressing cells / cell membranes: concentration not given
Target sequence in this assay (Q9BXC0 whole entry, species assumed): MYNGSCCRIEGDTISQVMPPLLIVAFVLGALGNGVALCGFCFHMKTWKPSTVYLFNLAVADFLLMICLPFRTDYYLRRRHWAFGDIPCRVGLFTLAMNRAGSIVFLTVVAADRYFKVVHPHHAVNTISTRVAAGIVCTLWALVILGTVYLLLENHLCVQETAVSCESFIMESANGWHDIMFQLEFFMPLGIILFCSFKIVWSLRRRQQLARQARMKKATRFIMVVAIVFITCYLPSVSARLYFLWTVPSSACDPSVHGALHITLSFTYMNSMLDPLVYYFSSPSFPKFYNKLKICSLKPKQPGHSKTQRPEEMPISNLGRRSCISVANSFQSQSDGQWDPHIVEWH

[2] = target: T2, HM74 (Homo sapiens, UniProt P49019); test: 35S-GTPγS binding assay, HM74-expressing CHO membranes; assay type: biochemical
T2 construct: expressed in transfected cells; host or cells: CHO cells, membranes

[3] = target: T3, HM74A (Homo sapiens, UniProt Q8TDS4); test: 35S-GTPγS binding assay, HM74A-expressing CHO membranes; assay type: biochemical
T3 construct: expressed in transfected cells; host or cells: CHO cells, membranes

[4] = target: T1, GPR81; conditions: 5 μM forskolin
Description: A β-galactosidase (β-gal) assay system was also used to characterize the GPR81 activation in SK-N-MC/CRE-β-gal cells stably expressing human GPR81. GPCRs that couple with Gi proteins, upon activation by agonist, inhibit cAMP accumulation, and therefore inhibit forkolin-stimulated β-gal expression. A cell line stably expressing human GPR81 was established from an SK-N-MC/CRE-β-gal cell line, which harbors a β-galactosidase β-gal) gene under the control of a cAMP-responsive element (CRE). SK-N-MC/CRE-β-gal cells were transfected with the above-described human GPR81-pCIneo construct using LipofectAmine as the transfection reagent. Two days after transfection, the cells were split into new culture dishes at different densities and grown under selection of G418 for three weeks. Single isolated clones were isolated and tested for responsiveness to L-lactate stimulation. […] The β-gal activity was assayed as described (Liu et al., Mol. Pharmacol., Vol. 67, pp. 231-240 (2005)).
Target sequence in this assay (Q9BXC0 whole entry): as the sequence (Q9BXC0 whole entry, species assumed) above

[5] = 35S-GTPγS binding assay, control membranes; assay type: biochemical, Chinese hamster; conditions: negative control
[6] = cAMP inhibition-linked β-gal assay, control cells; assay type: cell-based
[7] = system: HM74; test: cAMP inhibition-linked β-gal assay, HM74 expressing cells; assay type: cell-based
[8] = target: T1, GPR81; test: 35S-GTPγS binding assay, membranes of CHO cells expressing human GPR81; assay type: biochemical; parameters: expressed in transfected cells; host or cells: CHO-K1 (transient, pCIneo), membranes
Target sequence in this assay (Q9BXC0 whole entry): as the sequence (Q9BXC0 whole entry, species assumed) above

[9] = target: T1, GPR81; conditions: Tunaru et al., Nat. Med. 2003; cited from earlier work
Target sequence in this assay (Q9BXC0 whole entry, species assumed): as above

[10] = system: porcine GPR81; test: GTPγS binding assay, porcine GPR81; assay type: biochemical; conditions: FIG. 20
[11] = system: monkey GPR81; test: GTPγS binding assay, monkey GPR81; assay type: biochemical; conditions: FIG. 20
Description: The forward primer, 5′ ACTAGAGAATTCGCCACCATGTACAACGGGTCGTGCTGCCGCAT 3′ (SEQ ID NO:15), and the reverse primer, 5′ ATGATAGCGGCCGCTCAGTGCCACTCAACAGTGTGGGGATC 3′ (SEQ ID NO:16), were designed based on the identified monkey GPR81 coding sequence and were used to amplify the monkey GPR81 coding region using monkey genomic DNA as template.

[12] = target: T4, mouse GPR81S (Mus musculus, UniProt Q8C131); test: GTPγS binding assay, mouse GPR81S; assay type: biochemical; conditions: FIG. 19
T4 construct: expressed in transfected cells; host or cells: CHO-K1 (transient, pCIneo), membranes
T4 sequence (Q8C131 1-343): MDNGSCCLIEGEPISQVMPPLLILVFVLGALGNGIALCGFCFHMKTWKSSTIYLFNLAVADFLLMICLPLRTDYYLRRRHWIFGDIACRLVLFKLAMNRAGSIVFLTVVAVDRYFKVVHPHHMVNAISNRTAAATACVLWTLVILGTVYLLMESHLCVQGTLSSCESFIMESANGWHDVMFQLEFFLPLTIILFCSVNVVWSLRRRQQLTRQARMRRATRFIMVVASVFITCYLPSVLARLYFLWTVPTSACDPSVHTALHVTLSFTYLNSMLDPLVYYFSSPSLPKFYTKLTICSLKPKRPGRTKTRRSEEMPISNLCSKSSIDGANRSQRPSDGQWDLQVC
Description: (§1) The longer polypeptide sequence was termed mouse GP[…]; the shorter polypeptide sequence was termed mouse GP[…].

[13] = system: bovine GPR81; test: GTPγS binding assay, bovine GPR81; assay type: biochemical; conditions: FIG. 20
Description: TAA GTC ACC AAT CC 3′ (SEQ ID NO:12), were designed based on the identified bovine GPR81 coding sequence and were used to amplify the bovine GPR81 coding region using bovine genomic DNA as template.

[14] = system: rat GPR81S; test: GTPγS binding assay, rat GPR81S; assay type: biochemical; conditions: FIG. 19
Description: (§2) The longer polypeptide sequence was termed rat GP[…]; the shorter polypeptide sequence was termed rat GP[…]. […] The forward primer, 5' [NT] ID NO:7), and the reverse primer, [NT] […] The forward primer, [NT] ID NO:9), and reverse primer, [NT]

[15] = system: dog GPR81; test: GTPγS binding assay, dog GPR81; assay type: biochemical; conditions: FIG. 20
[16] = system: rat GPR81L; test: GTPγS binding assay, rat GPR81L; assay type: biochemical; conditions: FIG. 19
Description: as §2

[17] = target: T5, mouse GPR81L (Mus musculus, UniProt Q8C131); test: GTPγS binding assay, mouse GPR81L; assay type: biochemical; conditions: FIG. 19
T5 construct: expressed in transfected cells; host or cells: CHO-K1 (transient, pCIneo), membranes
T5 sequence (Q8C131 with tags, fused parts or gaps): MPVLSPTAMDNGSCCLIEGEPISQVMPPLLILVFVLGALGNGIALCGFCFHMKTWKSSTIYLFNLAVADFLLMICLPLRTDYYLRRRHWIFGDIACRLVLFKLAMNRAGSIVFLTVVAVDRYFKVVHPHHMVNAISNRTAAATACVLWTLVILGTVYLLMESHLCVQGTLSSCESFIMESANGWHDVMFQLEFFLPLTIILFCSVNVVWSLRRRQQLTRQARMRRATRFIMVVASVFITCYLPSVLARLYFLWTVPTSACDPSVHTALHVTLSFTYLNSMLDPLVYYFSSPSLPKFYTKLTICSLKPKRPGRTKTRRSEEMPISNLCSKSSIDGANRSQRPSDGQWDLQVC
Description: as §1

T3 sequence (Q8TDS4 whole entry): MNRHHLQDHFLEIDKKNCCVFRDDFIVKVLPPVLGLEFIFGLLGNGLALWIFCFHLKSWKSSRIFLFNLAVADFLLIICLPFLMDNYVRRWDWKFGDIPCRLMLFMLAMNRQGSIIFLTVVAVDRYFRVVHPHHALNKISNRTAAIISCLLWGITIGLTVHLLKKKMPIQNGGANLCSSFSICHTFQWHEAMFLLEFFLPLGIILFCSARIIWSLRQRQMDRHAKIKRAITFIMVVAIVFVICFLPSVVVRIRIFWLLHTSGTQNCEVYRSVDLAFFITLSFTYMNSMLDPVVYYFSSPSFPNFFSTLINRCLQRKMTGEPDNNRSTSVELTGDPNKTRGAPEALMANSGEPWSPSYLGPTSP
T2 sequence (P49019 whole entry): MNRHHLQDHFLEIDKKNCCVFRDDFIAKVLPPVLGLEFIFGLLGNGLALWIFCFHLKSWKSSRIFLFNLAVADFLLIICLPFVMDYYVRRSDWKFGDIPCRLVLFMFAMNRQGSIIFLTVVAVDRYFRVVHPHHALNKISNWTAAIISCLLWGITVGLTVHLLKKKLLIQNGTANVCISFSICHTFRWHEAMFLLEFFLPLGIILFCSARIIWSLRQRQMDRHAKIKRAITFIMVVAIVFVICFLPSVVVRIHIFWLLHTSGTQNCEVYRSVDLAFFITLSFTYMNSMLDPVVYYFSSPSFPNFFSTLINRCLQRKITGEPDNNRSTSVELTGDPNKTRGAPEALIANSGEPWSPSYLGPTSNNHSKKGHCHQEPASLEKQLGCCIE

Compound: CC(Cl)(Cl)C(=O)[O-].[Na+] [2,2-dichloropropionic acid, sodium salt]
- GPR81 agonist activity [1]: no

Compound: CC(Cl)C(=O)Cl (centres unmarked) [2-chloropropinoyl chloride]
- GPR81 agonist activity [1]: showed GPR81-agonist activity and yes

Compound: CC(Cl)C(=O)[O-].[Na+] (centres unmarked) [2-chloropropionic acid, sodium salt]
- GPR81 agonist activity ([1]; listed as 2-chloropropinoate, sodium salt): showed GPR81-agonist activity
- GPR81 agonist activity ([1]; sodium salt): yes

Compound: C[C@@H](O)C(=O)O [D-lactate]
- efficacy as GPR81 agonist (comparison) [1]: less efficacious
- GPR81 agonist activity [1]: demonstrated significant GPR81 agonist activity and yes

Compound: N[C@@H](CCO)C(=O)O [L-homoserine]
- GPR81 agonist activity [1]: none of glucose, L-homoserine, or any L-amino acids tested activated GPR81 and no

Compound: C[C@H](O)C(=O)O [L-lactate]
- activation of HM74-expressing membranes (35S-GTPγS binding) [2]: did not activate
- activation of HM74A-expressing membranes (35S-GTPγS binding) [3]: did not activate
- inhibition of forskolin-induced β-gal expression in GPR81-expressing cells [4]: inhibits forskolin-induced β-galactosidase expression
- EC50 ([4]; read-out: EC50, inhibition of forskolin-induced β-gal expression in GPR81-expressing cells): ~3 mM
- 35S-GTPγS binding stimulation in control cells/membranes not expressing GPR81 or any GPCR [5]: did not activate
- inhibition of forskolin-induced β-gal expression in control cells not expressing a GPCR [6]: did not inhibit
- inhibition of forskolin-induced β-gal expression in control cells not expressing a GPCR ([6]; listed as lactate): not in cells not expressing GPR81
- inhibition of forskolin-induced β-gal expression in HM74 expressing cells [7]: did not inhibit
- EC50 ([8]; CHO membranes, read-out: EC50, activation of human GPR81 (35S-GTPγS binding)): ~5 mM and 5 mM
- receptor activation of GPR81 ([8]; at 1 mM concentration): capable of stimulating detectable receptor activation

Compound: CC(=O)O [acetate]
- GPR81 agonist activity [1]: neither acetate, pyruvate, formiate, nor glyoxylate activated GPR81 and no

Compound: O=C(O)C(F)(F)Cl [chlorodifluoroacetate (CDFA), chlorodifluoroacetate]
- GPR81 agonist activity [1]: yes
- GPR81 agonist activity ([1]; listed as chlorodifluoroacetate): showed GPR81-agonist activity

Compound: O=C(O)C(F)F [difluoroacetate]
- GPR81 agonist activity [1]: showed GPR81-agonist activity

Compound: O=CO [formiate]
- GPR81 agonist activity [1]: neither acetate, pyruvate, formiate, nor glyoxylate activated GPR81 and no

Compound: O=C([O-])CO.[Na+] [glycolic acid, sodium salt]
- GPR81 agonist activity ([1]; listed as glycolate, sodium salt): demonstrated significant GPR81 agonist activity
- GPR81 agonist activity ([1]; sodium salt): yes

Compound: O=CC(=O)O [glyoxylate]
- GPR81 agonist activity [1]: neither acetate, pyruvate, formiate, nor glyoxylate activated GPR81 and no

Compound: O=C(O)c1cccnc1 [nicotinic acid]
- inhibition of forskolin-induced β-gal expression in GPR81-expressing cells [4]: failed to inhibit; also recorded: not in cells expressing GPR81
- inhibition of forskolin-induced β-gal expression in control cells not expressing a GPCR [6]: failed to inhibit
- activation of GPR81 [9]: does not activate
- inhibition of forskolin-induced β-gal expression in HM74 expressing cells [7]: inhibited forskolin-induced β-gal expression

Compound: CC(C)(O)C(=O)[O-].[Na+] [sodium hydroxyisobutyrate]
- GPR81 agonist activity [1]: yes
- GPR81 agonist activity ([1]; listed as hydroxy-iso-butyrate): demonstrated significant GPR81 agonist activity

Compound: O=C(O)C(Br)(Br)Br [tribromoacetate (TEA), tribromoacetate]
- GPR81 agonist activity [1]: no

Compound: O=C(O)C(F)(F)F [trifluoroacetate (TFA), trifluoroacetate]
- GPR81 agonist activity [1]: yes
- GPR81 agonist activity ([1]; listed as trifluoroacetate): showed GPR81-agonist activity

Compound: CCC(O)C(=O)O (stereo not drawn) [α-hydroxybutyrate]
- GPR81 agonist activity [1]: yes

Compound: CC(O)CC(=O)O (stereo not drawn) [β-hydroxybutyrate]
- activation of porcine GPR81 [10]: did not activate
- activation of monkey GPR81 [11]: did not activate
- activation of mouse GPR81S [12]: did not activate
- activation of bovine GPR81 [13]: did not activate
- activation of rat GPR81S [14]: did not activate
- activation of dog GPR81 [15]: did not activate
- activation of rat GPR81L [16]: did not activate
- GPR81 agonist activity [1]: no
- activation of human GPR81 (GTPγS binding) [8]: did not activate
- activation of mouse GPR81L [17]: did not activate

Compound: NCCCC(=O)O [γ-aminobutyric acid (GABA), γ-aminobutyric acid]
- stimulation of 35S-GTPγS binding in GPR81-expressing cells / cell membranes [1]: did not stimulate
- GPR81 agonist activity [1]: no
- GPR81 agonist activity ([1]; listed as gamma-aminobutyric acid (GABA)): did not activate it

Compound: O=C(O)CCCO [γ-hydroxybutyric acid (GHB), γ-hydroxybutyric acid]
- 35S-GTPγS binding stimulation in control cells/membranes not expressing GPR81 or any GPCR [5]: not in the control cells; also recorded: not in cells not expressing GPR81
- stimulation of 35S-GTPγS binding in GPR81-expressing cells ([1]; at 1 mM and 5 mM): significantly stimulated
- stimulation of 35S-GTPγS binding in GPR81-expressing cells / cell membranes [1]: stimulates
- GPR81 agonist activity [1]: yes
- GPR81 agonist activity ([1]; listed as GHB): activated GPR81
